Measured values reported in patent US11897918B2, “Compositions and methods to increase production” (priority 2014, dated 2024).

Assays:
H3N2 strain IVR-165 = type: cell-based, influenza H3N2; details: concentrations as low as 0.05 or even 0.01 μM
[1] = 0 and 60 hr, mass spec
MDCK 33016PF cells = details: 24 hours; BYF589 1 μM, MEV 100 μM, FTI 0.5 μM, ZA 1 μM, GTI 0.5 μM
[2] = system: B/Massachusetts/2/2012 (low-expressing); experiment: ambr15 mini-bioreactor and shake flask comparison, B strain; type: cell-based, influenza B; details: CDM and DM134 media, shake flasks and 15 ml bioreactors
Experimental: The two lead compounds were further tested in the commercially available small-scale bioreactor system, ambr15™ (TAP Biosystems). The ambr15 system mimics the characteristics of classical bioreactors at microscale (10-15 ml), controlled by an automated workstation, which enables the rapid evaluation of multiple bioreactor cultures at microscale.
To test both lead compounds were tested side-by-side under controlled conditions, with two infection media formulations (DM134 and CDM) and two flu strains, A/Victoria/361/2011 (IVR-165) (high-expressing) and B/Massachusetts/2/2012 (low-expressing). The infection parameters used in the experiment were as follows: seeding density was 1.0×10^6 cells/ml or 2.5×10^6 cells/mL; pH was 7.1+/−0.02 (pH control by dual control with 0.05N NaOH and CO2 gas); DO was 50% (range 50-80%), controlled by O2 gas; agitation was 1000 rpm (local control); temperature was 34.0° C., locally monitored with bioreactor controller probe; vessel type was Spargeless, extended temperature vessels; and, aeration rate during run was 1 mL/min.
The quantification of HA was carried out by ELISA then was subsequently confirmed by HPLC. It was also shown that AFZ077 was able to boost HA yield in the DM134 medium with both low (1×10^6 per mL) and high (2.5×10^6 per mL) infection cell densities in this system. […] Overall, greater enhancement effect seen for low-expressing strains. […]

[3] = system: influenza in MDCK 33016PF cells; type: cell-based
[4] = system: virus-infected host cell culture; type: cell-based, influenza; details: versus control without compound
cellular cholesterol = experiment: Total cellular cholesterol (Amplex Red); type: cell-based; details: normalized to DMSO
Experimental: Possible effects of BYF589 as well as various enzyme inhibitors of the pathway on the cell viability and total cellular cholesterol levels were examined. Tested samples included DMSO, BYF589 (1 μM), MEV (100 μM), FTI (0.5 μM), ZA (1 μM) and GTI (0.5 μM).
Free cholesterol is oxidized by cholesterol oxidase to form a cholesterol ketone and H2O2, which then reacts with Amplex Red+HRP to produce the fluorescent product resorufin.

B/Massachusetts/02/2012 = experiment: Ambr 250 mL bioreactor, B strain; type: cell-based, influenza B
Experimental: FIG. 13 provides a graph showing HA yields in the B strain tested with BYF589 at concentrations as indicated.
FIG. 14 provides a graph showing HA yields in the B strain tested with AFZ077 at concentrations as indicated.
The results were confirmed using 3 different viruses (a high-, medium-, and poor-expressing strains). […] To confirm these findings in a larger-scale system, TD Ambr™ 250 mL bioreactors were employed. Both of the lead compounds (as well as DMSO alone as negative control, and, no compound/no DMSO as double-negative control) were tested with a high- and low-expressing strains to determine if the observed enhancement in the small-scale cultures can be reproduced in a larger-scale system. The following parameters were used: Spent DM134:Fresh PFM (1:3); Virus Strains were A/Victoria/361/2011 (IVR-165) and B/Massachusetts/02/2012; MOI was 10^−5 for A/Victoria IVR-165 and 10^−4 for B/Massachusetts; ICD: 2.0e6-3.0e6 cells/mL; N-1 Process: 1B (no Medium Exchange); and, Harvest Time was 65-72 hours post-infection. HA yields were measured by two methods: RP-HPLC and HA-ELISA. […] Note that the error bars represent one standard deviation from the mean, to illustrate variability of the HA-ELISA assay between assay repeats.

MDCK cells = experiment: Cell viability, VI-CELL trypan blue exclusion; type: cell-based; details: monitored up to 60 hrs
Experimental: Cell viability assays were performed using MDCK cells treated with 1 uM sulphonamide or DMSO control. Cell viability was monitored over time up to 60 hrs using a VI-CELL machine (Beckman Coulter)(cell viability measured based on trypan blue exclusion). The sulphonamide analog used herein is not a marketed drug, therefore toxicity was conducted to identify cell viability over the course of incubation at the highest tested concentration of 10 μM and 60 hours of contact. […] At least 91% viability is detected in cells treated with sulphonamide.

H3N2 strain = experiment: Additional SAR studies, 10 ml viral cultures; type: cell-based, influenza H3N2; details: 0.05 uM
Experimental: Additional SAR studies were carried out to further identify candidate compounds to increase yields. 165 analogs tested at 0.05 uM in 10 ml viral cultures with a H3N2 strain. BYF589 enhanced yield over no-compound (DMSO) control by ˜2 fold. 14 of the 165 screened were as good as or better in enhancing HA yields than BYF589 at the concentration tested.

O=C(O)C[C@H](O)C[C@H](O)/C=C/c1c(C2CC2)nc2ccccc2c1-c1ccc(F)cc1 [Compound G, (3R, 5S, 6E)-7-[2-cyclopropyl-4-(4-fluorophenyl)-quinolin-3-yl)-3,5-dihydroxyhept-6-enoic acid]
increase in HA yield (H3N2 strain IVR-165): 3 fold | loss of compound in media or media+MDCK cells [1]: No loss of compounds was observed | effect on cell viability (MDCK 33016PF cells): no negative effect on cell viability | HA yield enhancement, low-expressing B strain [2]: boosts HA yield | HA yield enhancement in multiple strains and subtypes of influenza [3]: at least 2 fold | increase in HA yield at 24 hours, compound added at T=2, 4 [4]: no significant enhancement in HA yield | increase in HA yield at 24 hours, compound added at T=6 [4]: no significant enhancement in HA yield | increase in HA yield at 24 hours, compound added at time of infection (T=0) [4]: approximately 4 fold | cellular cholesterol levels, compound alone (cellular cholesterol): lower cholesterol | effectiveness in increasing protein production yield by concentration (B/Massachusetts/02/2012; 5 nM vs 50 nM vs 500 nM): more effective in increasing protein production yield at 5 nM than at 50 nM, which in turn was more effective than at 500 nM | increase in yield over no DMSO control (B/Massachusetts/02/2012; 0.005 μM, HA-HPLC): about 37% | impact on cell viability (MDCK cells): Neither sulphonamide nor pitavastatin had a negative impact on cell viability | yield enhancement over no-compound (DMSO) control (H3N2 strain): ~2 fold
